Results taken from patent US20240190890A1, “MK2 INHIBITORS AND USES THEREOF” (Bristol-Myers Squibb Company, priority 2022, published 2024).

Target: p38a activated, mitogen-activated protein kinase-activated protein kinase 2 (MAPKAP-K2 or MK2) enzyme (Homo sapiens (Human), UniProt P49137)
Assay: MK2 Omnia continuous-read kinase assay for compound potency
Assay type: biochemical
Conditions: [MK-2]=0.4 nM, [ATP]=10 μM, [ST3-Sox]=10 μM; room temperature
How it was run: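 Continuous Sox-peptide fluorescence read (ex360/em485) every 71 s over 2 h at room temperature. Reactions: 10 μM each of ATP (at apparent Km) and S/T3-Sox, 0.4 nM p38a-activated MK2, pH 7.5 Tris/MgCl2 buffer. Initial rates yield % inhibition and IC50; single-exponential kobs values yield apparent kinact/KI.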

Sequence of p38a activated, mitogen-activated protein kinase-activated protein kinase 2 (MAPKAP-K2 or MK2) enzyme (P49137 whole entry): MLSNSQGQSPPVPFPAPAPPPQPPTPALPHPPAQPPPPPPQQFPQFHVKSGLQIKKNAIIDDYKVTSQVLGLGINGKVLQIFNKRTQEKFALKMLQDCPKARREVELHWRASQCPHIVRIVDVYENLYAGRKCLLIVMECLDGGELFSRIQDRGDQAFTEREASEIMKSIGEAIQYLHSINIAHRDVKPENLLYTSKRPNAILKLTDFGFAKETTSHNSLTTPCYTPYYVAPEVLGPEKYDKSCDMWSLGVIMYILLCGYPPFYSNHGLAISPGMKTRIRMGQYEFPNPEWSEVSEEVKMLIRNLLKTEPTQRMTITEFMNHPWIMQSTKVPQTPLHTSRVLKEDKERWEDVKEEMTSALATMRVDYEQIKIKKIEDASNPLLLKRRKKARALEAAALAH

Question: For `C[C@@H]1CNc2c(sc3ccc4nc(-c5cc(N6CCN(C)CC6)nc(Cl)n5)ccc4c23)C(=O)N1` [Example I-16, (R)-3-(2-chloro-6-(4-methylpiperazin-1-yl)pyrimidin-4-yl)-10-methyl-9,10,11,12-tetrahydro-8H-[1,4]diazepino[5′,6′:4,5]thieno[3,2-f]quinolin-8-one], which IC50 is on record?
Answer: 26 nM

Question: `C[C@@H]1CNc2c(sc3ccc4nc(-n5ccc(Cl)n5)ccc4c23)C(=O)N1` [Example I-165, (R)-3-(3-chloro-1H-pyrazol-1-yl)-10-methyl-9,10,11,12-tetrahydro-8H-[1,4]diazepino[5′,6′:4,5]thieno[3,2-f]quinolin-8-one] was tested. Which IC50 did it give?
Answer: 81 nM

Question: How did the IC50 turn out when `C#Cc1cc(-c2ccc3c(ccc4sc5c(c43)NC[C@@H](C)NC5=O)n2)c(NC)nn1` [Example I-104, (R)-3-(6-ethynyl-3-(methylamino)pyridazin-4-yl)-10-methyl-9,10,11,12-tetrahydro-8H-[1,4]diazepino[5′,6′:4,5]thieno[3,2-f]quinolin-8-one] was run?
Answer: 194 nM

Question: “(R)-10-methyl-3-(2-(4-methylpiperazin-1-yl)-6-vinylpyridin-4-yl)-9,10,11,12-tetrahydro-8H-[1,4]diazepino[5′,6′:4,5]thieno[3,2-f]quinolin- [Example I-96]” was tested. Which IC50 did it give?
Answer: 10 nM

Question: How did the IC50 turn out when `C/C=C\c1ncc(COCC)c(-c2ccc3c(ccc4sc5c(c43)NC[C@@H](C)NC5=O)n2)n1` [Example I-49, (R,Z)-3-(5-(ethoxymethyl)-2-(prop-1-en-1-yl)pyrimidin-4-yl)-10-methyl-9,10,11,12-tetrahydro-8H-[1,4]diazepino[5′,6′:4,5]thieno[3,2-f]quinolin-8-one] was run?
Answer: 474 nM

Question: How did the IC50 turn out when `C=Cc1cncc(-c2ccc3c(ccc4sc5c(c43)NC[C@@H](C)NC5=O)n2)c1` [Example I-82, (R)-10-methyl-3-(5-vinylpyridin-3-yl)-9,10,11,12-tetrahydro-8H-[1,4]diazepino[5′,6′:4,5]thieno[3,2-f]quinolin-8-one] was run?
Answer: 21 nM

Question: Which IC50 does the source give for `C=Cc1cc(-c2ccc3c(ccc4sc5c(c43)NC[C@@H](C)NC5=O)n2)c(C)nn1` [Example I-136, (R)-10-methyl-3-(3-methyl-6-vinylpyridazin-4-yl)-9,10,11,12-tetrahydro-8H-[1,4]diazepino[5′,6′:4,5]thieno[3,2-f]quinolin-8-one] here?
Answer: 9 nM

Question: With `C=Cc1cc(-c2ccc3c(ccc4sc5c(c43)NC[C@@H](C)NC5=O)n2)cc(N2CCN(CC)CC2)n1` [Example I-173, (R)-3-(2-(4-ethylpiperazin-1-yl)-6-vinylpyridin-4-yl)-10-methyl-9,10,11,12-tetrahydro-8H-[1,4]diazepino[5′,6′:4,5]thieno[3,2-f]quinolin-8-one] as the molecule, how does the IC50 read?
Answer: 35 nM

Question: Which IC50 does the source give for `C#Cc1cc(-c2ccc3c(ccc4sc5c(c43)NC[C@@H](C)NC5=O)n2)cc(CN2C[C@@H](C)O[C@H](C)C2)n1` [Example I-188, (R)-3-(2-(((2R,6R)-2,6-dimethylmorpholino)methyl)-6-ethynylpyridin-4-yl)-10-methyl-9,10,11,12-tetrahydro-8H-[1,4]diazepino[5′,6′:4,5]thieno[3,2-f]quinolin-8-one] here?
Answer: 25 nM

Question: How did the IC50 turn out when `C=Cc1cc(-c2ccc3c(ccc4sc5c(c43)NC[C@@H](C)NC5=O)n2)c(C(=O)OC)nn1` [Example I-137, methyl (R)-4-(10-methyl-8-oxo-9,10,11,12-tetrahydro-8H-[1,4]diazepino[5′,6′:4,5]thieno[3,2-f]quinolin-3-yl)-6-vinylpyridazine-3-carboxylate] was run?
Answer: 3 nM

Question: How did the IC50 turn out when `Cc1cnc(CC#N)cc1-c1ccc2c(ccc3sc4c(c32)NC[C@@H](C)NC4=O)n1` [Example I-267, (R)-2-(5-methyl-4-(10-methyl-8-oxo-9,10,11,12-tetrahydro-8H-[1,4]diazepino[5′,6′:4,5]thieno[3,2-f]quinolin-3-yl)pyridin-2-yl)acetonitrile] was run?
Answer: 1000 nM

Question: `C=Cc1cc(-c2ccc3c(ccc4sc5c(c43)NC[C@@H](C)NC5=O)n2)cc(N2CCC2)n1` [Example I-179, (R)-3-(2-(azetidin-1-yl)-6-vinylpyridin-4-yl)-10-methyl-9,10,11,12-tetrahydro-8H-[1,4]diazepino[5′,6′:4,5]thieno[3,2-f]quinolin-8-one] was tested. Which IC50 did it give?
Answer: 11 nM

Question: For `C[C@@H]1CNc2c(sc3ccc4nc(-c5cc(Cl)ncc5F)ccc4c23)C(=O)N1` [Example I-69, (R)-3-(2-chloro-5-fluoropyridin-4-yl)-10-methyl-9,10,11,12-tetrahydro-8H-[1,4]diazepino[5′,6′:4,5]thieno[3,2-f]quinolin-8-one], which IC50 is on record?
Answer: 27 nM

Question: Which IC50 does the source give for `C=Cc1ncc(F)c(-c2ccc3c(ccc4sc5c(c43)NC[C@@H](C)NC5=O)n2)n1` [Example I-2, (R)-3-(5-fluoro-2-vinylpyrimidin-4-yl)-10-methyl-9,10,11,12-tetrahydro-8H-[1,4]diazepino[5′,6′:4,5]thieno[3,2-f]quinolin-8-one] here?
Answer: 133 nM

Question: How did the IC50 turn out when `C[C@@H]1CNc2c(sc3ccc4nc(-c5cncc(Cl)c5)ccc4c23)C(=O)N1` [Example I-81, (R)-3-(5-chloropyridin-3-yl)-10-methyl-9,10,11,12-tetrahydro-8H-[1,4]diazepino[5′,6′:4,5]thieno[3,2-f]quinolin-8-one] was run?
Answer: 90 nM

Question: Which IC50 does the source give for `C#Cc1ncc(CO)c(-c2ccc3c(ccc4sc5c(c43)NC[C@@H](C)NC5=O)n2)n1` [Example I-79, (R)-3-(2-ethynyl-5-(hydroxymethyl)pyrimidin-4-yl)-10-methyl-9,10,11,12-tetrahydro-8H-[1,4]diazepino[5′,6′:4,5]thieno[3,2-f]quinolin-8-one] here?
Answer: 568 nM

Question: With `C=C(CN1CCOCC1)c1cc(-c2ccc3c(ccc4sc5c(c43)NC[C@@H](C)NC5=O)n2)ccn1` [Example I-131, (R)-10-methyl-3-(2-(3-morpholinoprop-1-en-2-yl)pyridin-4-yl)-9,10,11,12-tetrahydro-8H-[1,4]diazepino[5′,6′:4,5]thieno[3,2-f]quinolin-8-one] as the molecule, how does the IC50 read?
Answer: 3 nM

Question: How did the IC50 turn out when `C[C@@H]1CNc2c(sc3ccc4nc(-c5nc(Cl)ncc5COC5(C)CCC5)ccc4c23)C(=O)N1` [Example I-27, (R)-3-(2-chloro-5-((1-methylcyclobutoxy)methyl)pyrimidin-4-yl)-10-methyl-9,10,11,12-tetrahydro-8H-[1,4]diazepino[5′,6′:4,5]thieno[3,2-f]quinolin-8-one] was run?
Answer: 391 nM

Question: Which IC50 does the source give for `C=Cc1cc(C(F)(F)F)nn1-c1ccc2c(ccc3sc4c(c32)NC[C@@H](C)NC4=O)n1` [Example I-241, (R)-10-methyl-3-(3-(trifluoromethyl)-5-vinyl-1H-pyrazol-1-yl)-9,10,11,12-tetrahydro-8H-[1,4]diazepino[5′,6′:4,5]thieno[3,2-f]quinolin-8-one] here?
Answer: 1000 nM

Question: Which IC50 does the source give for `C=Cc1nccc(-c2ccc3c(ccc4sc5c(c43)NC[C@@H](C)NC5=O)n2)c1F` [Example I-217, (R)-3-(3-fluoro-2-vinylpyridin-4-yl)-10-methyl-9,10,11,12-tetrahydro-8H-[1,4]diazepino[5′,6′:4,5]thieno[3,2-f]quinolin-8-one] here?
Answer: 78 nM

Question: Which IC50 does the source give for `C=Cc1nc(-c2ccc3c(ccc4sc5c(c43)NC[C@@H](C)NC5=O)n2)cnc1C` [Example I-166, (R)-10-methyl-3-(5-methyl-6-vinylpyrazin-2-yl)-9,10,11,12-tetrahydro-8H-[1,4]diazepino[5′,6′:4,5]thieno[3,2-f]quinolin-8-one] here?
Answer: 181 nM

Question: How did the IC50 turn out when `C/C=C/c1cc(-c2ccc3c(ccc4sc5c(c43)NC[C@@H](C)NC5=O)n2)ccn1` [Example I-113, (R,E)-10-methyl-3-(2-(prop-1-en-1-yl)pyridin-4-yl)-9,10,11,12-tetrahydro-8H-[1,4]diazepino[5′,6′:4,5]thieno[3,2-f]quinolin-8-one] was run?
Answer: 53 nM

Question: Which IC50 does the source give for `C[C@@H]1CNc2c(sc3ccc4nc(-c5cnc(Cl)[nH]5)ccc4c23)C(=O)N1` [Example I-151, (R)-3-(2-chloro-1H-imidazol-5-yl)-10-methyl-9,10,11,12-tetrahydro-8H-[1,4]diazepino[5′,6′:4,5]thieno[3,2-f]quinolin-8-one] here?
Answer: 23 nM

Question: `C=Cc1cc(N2CCN(C)CC2)nc(-c2ccc3c(ccc4sc5c(c43)NC[C@@H](C)NC5=O)n2)n1` [Example I-62, (R)-10-methyl-3-(4-(4-methylpiperazin-1-yl)-6-vinylpyrimidin-2-yl)-9,10,11,12-tetrahydro-8H-[1,4]diazepino[5′,6′:4,5]thieno[3,2-f]quinolin-8-one] was tested. Which IC50 did it give?
Answer: 27 nM

Question: For `C=Cc1cc(-c2ccc3c(ccc4sc5c(c43)NC[C@@H](C)NC5=O)n2)cc(CN2CCC3(CC2)CC3(F)F)n1` [Example I-141, (R)-3-(2-((1,1-difluoro-6-azaspiro[2.5]octan-6-yl)methyl)-6-vinylpyridin-4-yl)-10-methyl-9,10,11,12-tetrahydro-8H-[1,4]diazepino[5′,6′:4,5]thieno[3,2-f]quinolin-8-one], which IC50 is on record?
Answer: 111 nM

Question: Which IC50 does the source give for `C=Cc1cc(-c2ccc3c(ccc4sc5c(c43)NC[C@@H](C)NC5=O)n2)c(C)cn1` [Example I-109, (R)-10-methyl-3-(5-methyl-2-vinylpyridin-4-yl)-9,10,11,12-tetrahydro-8H-[1,4]diazepino[5′,6′:4,5]thieno[3,2-f]quinolin-8-one] here?
Answer: 4 nM

Question: `C[C@@H]1CNc2c(sc3ccc4nc(-c5nc(Cl)ncc5COC5COC5)ccc4c23)C(=O)N1` [Example I-20, (R)-3-(2-chloro-5-((oxetan-3-yloxy)methyl)pyrimidin-4-yl)-10-methyl-9,10,11,12-tetrahydro-8H-[1,4]diazepino[5′,6′:4,5]thieno[3,2-f]quinolin-8-one] was tested. Which IC50 did it give?
Answer: 224 nM

Question: For `C#Cc1cncc(-c2ccc3c(ccc4sc5c(c43)NC[C@@H](C)NC5=O)n2)c1` [Example I-83, (R)-3-(5-ethynylpyridin-3-yl)-10-methyl-9,10,11,12-tetrahydro-8H-[1,4]diazepino[5′,6′:4,5]thieno[3,2-f]quinolin-8-one], which IC50 is on record?
Answer: 83 nM

Question: With `C=Cc1cc(-c2ccc3c(ccc4sc5c(c43)NC[C@@H](C)NC5=O)n2)ncn1` [Example I-34, (R)-10-methyl-3-(6-vinylpyrimidin-4-yl)-9,10,11,12-tetrahydro-8H-[1,4]diazepino[5′,6′:4,5]thieno[3,2-f]quinolin-8-one] as the molecule, how does the IC50 read?
Answer: 13 nM
